Assay results published in patent publication US9320723B2, “Methods of treating thyroid eye disease” (University of Rochester, priority 2010, dated 2016).
Read-outs that look alike come from different tables or passages of the source. Blank lines part the entries; values can stand above or below the compound they belong to.

Assays:
[1] = tested on: human orbital fibroblasts; assay: HA ELISA of culture medium of orbital fibroblasts treated with prostaglandins or drugs; type: cell-based; conditions: for basal HA levels: 100 nM antagonist alone, compared with untreated; for PGD2- and PGJ2-induced HA production: 100 nM antagonist pretreatment 1 hour, PGD2 5 μM or PGJ2 2 μM; for HA levels after selective DP agonist: compared to untreated fibroblasts
From the text: Orbital fibroblasts: Primary orbital fibroblasts were isolated from TED patients undergoing orbital decompression surgery. The protocols for orbital biopsy and blood sample, described below, were approved by the Internal Review Board and informed, written consent was obtained from all patients. […] Fibroblasts were characterized by their adherent morphology, expression of vimentin and types I and III collagen and absence of CD45, factor VIII or cytokeratin. Fibroblasts were used at the earliest passage possible (between passages 4 to 10). Human T cells: Lymphocytes were isolated from 60 ml of peripheral blood obtained during orbital decompression surgery. Whole blood was separated over a Ficoll-Paque Plus Gradient (Amersham Biosciences, Piscataway, N.J.) to obtain peripheral blood mononuclear cells. T cells were enriched using CD3/CD28 T cell Expander beads (Invitogen). […] After that, 50 U/ml of recombinant interleukin-2 (rIL-2) was added to the culture and incubated for another 2-3 days. On day 5, cells were diluted to a concentration of 0.5×10^6 cells/ml in medium containing 50 U/ml rIL-2 and incubated for an additional 3-7 days. Cellular purity was assessed using an anti-CD3-PE antibody (BD Biosciences, San Jose, Calif.) and analyzed on a FACSCalibur flow cytometer (BD Biosciences).
Aliquots of culture medium were removed at indicated time points, centrifuged (5 min, 8,000×g at 4° C.) and HA levels quantified by enzyme-linked immunosorbent assay (ELISA) according to the manufacturer's protocol (R&D Systems). Briefly, samples were incubated in HA-binding protein (HABP)-coated microwells, allowing HA in samples to react with the immobilized HABP. After the removal of unbound molecules by washing, biotinylated-HABP was added to the microwells. Following a second wash, streptavidin-conjugated to horseradish peroxidase was added. After the last wash, the chromogenic substrate was added and HA levels were determined using a Varioskan Flash plate reader (Thermo Fisher Scientific, Milford, Mass.).

[2] = tested on: primary orbital fibroblasts; assay: 15d-PGJ2 on TGF-β1 induced HA and HAS mRNA; type: cell-based, human; conditions: 15d-PGJ2 0.5, 1.0 or 2.0 μM
Method: Primary orbital fibroblasts were isolated from Graves' disease patients undergoing orbital decompression surgery. The cells were grown in RPMI 1640 media containing 10% FBS, and incubated for 24 hours either with or without 2 ng/ml TGF-β1, and 0.5 μM, 1.0 μM, or 2.0 μM 15d-PGJ2. The amount of HA in the cell culture supernatant and pericellular extraction was measured by ELISA as in the preceding Examples. […] While TGF-β normally induces both HAST and HAS2 mRNA expression, TGF-β induced HA secretion was inhibited by 15d-PGJ2 (FIG. 18).

[3] = tested on: human orbital fibroblasts; conditions: previously reported (Feldon et al. 2006); cited from earlier work
[4] = tested on: human orbital fibroblasts; assay: Quantitation of secreted, pericellular and intracellular HA by ELISA, TGF-β1 treatment; type: cell-based; conditions: for cell number after treatment: cells counted in the FIG. 10 experiment; for inhibition at 10 µM: Homo sapiens, Fibroblast, 2 ng/ml TGF-β1, 24 hours
Method: Confluent monolayers of orbital fibroblasts were serum starved in 0.5% FBS RPMI-1640 medium for three days and pretreated with different concentrations of Pio or Rosi for 1 hour and then treated with or without 2 ng/ml TGF-β1 for 24 hours. After treatments, an aliquot of culture medium (secreted HA) was removed and centrifuged at 8,000×g at 4° C. for 5 minutes and the supernatant was saved for later analysis. The cells were washed twice with PBS and treated with 0.25% trypsin-EDTA solution (GIBCO, Invitrogen) at 37° C. for 5 minutes, the reaction was stopped by addition of culture medium and cell number was determined using a hemocytometer. The cells were then centrifuged and the supernatant was collected and incubated at 100° C. for 10 minutes to inactivate trypsin activity. This supernatant was saved for pericellular HA detection. The cell pellet was washed with PBS once and digested with 120 μg/ml proteinase K in 0.1% SDS/0.1 M Tris-HCl (pH 7.6) at 37° C. for 1 hour, and proteinase K was inactivated by incubation at 100° C. for 10 min. The cell lysate was centrifuged and supernatant analyzed for intracellular HA.
The amount of HA in each extract (secreted HA, pericellular HA and intracellular HA) was measured by ELISA based on the specific interaction of HA with HA binding protein (HABP). The HA detection kit was purchased from R&D system (Minneapolis, Minn.). Briefly, diluted samples were incubated in HABP-coated microwells, allowing HA present in samples to react with the immobilized HABP. After extensive washing, biotinylated HABP was added to the microwells to form complexes with bound HA. Following another round of washing, streptavidin conjugated horseradish peroxidase was added. After a brief incubation period and washing, chromogenic substrate was added and HA levels were determined using a Varioskan Flash plate reader (Thermo Fisher Scientific, Milford, Mass.). A fraction of the samples were pretreated with Streptomyces hyaluronidase (2 U/ml at 37° C. for 2 hour) before subjected to the ELISA assay as a negative control. Furthermore, an additional 50 ng/ml (final concentration) of free soluble HA was added to a fraction of the cell lysate samples to confirm that there are no inhibitory factors present and that the assays show the expected additivity when a known amount of exogenous HA is included.

[5] = tested on: human orbital fibroblasts; assay: Cell viability assay (XTT); type: cell-based; conditions: 24 hours, with or without TGF-β1
Method: Cell viability was assayed using the colorimetric XTT (2,3-bis-(2-methoxy-4-nitro-5-sulfophenyl)-2H-tetrazolium-5-carboxanilide) assay kit (Roche, Germany). Briefly, orbital fibroblasts were seeded in a 96-well plate and cultured with various treatments. Twenty hours after treatment, 50 μl of XTT labeling mixture was added and cells were incubated at 37° C. for 4 hours. The amount of cleaved XTT product generated by metabolically active cells was assayed by measuring absorbance using an ELISA plate reader at 480 nm with a reference wavelength at 650 nm. Cell viability results were also confirmed by Trypan blue staining.

[6] = tested on: human orbital fibroblasts; assay: qRT-PCR of HAS mRNA after PGD2 or BW245C; type: cell-based; conditions: BW245C 10 μM
Method: RNA was isolated from orbital fibroblasts or T cells using an RNeasy Mini kit (Qiagen). RNA was reverse transcribed to cDNA using iScript cDNA synthesis kit (Bio-Rad) and diluted 5-fold in RNase-free H2O. Forward and reverse primers for each gene are shown in Table I. RT-PCR: The PCR reaction was performed using Qiagen Fast Cycling PCR kit for 30 cycles in a Bio-Rad thermal cycler. The PCR product was visualized on a 5% acrylamide gel stained with ethidium bromide. Amplifications without reverse transcriptase were carried out as negative controls. qRT-PCR: qRT-PCR was performed in a Bio-Rad iCycler containing B-R SYBR Green SuperMix for IQ (Quanta Biosciences, Gaithersburg, Md.). Efficiency of the amplification was determined to be >90%.
Amplification of 7S ribosomal RNA was carried out for each cDNA (in triplicate) for normalization. Threshold cycle number (Ct) of amplification in each sample was determined by Bio-Rad software and the relative mRNA abundance was calculated as the Ct for amplification of a gene-specific cDNA minus average Ct for 7S, expressed as a power of 2; i.e., 2^ΔCt.

orbital fibroblasts = assay: Measurement of intracellular cAMP (TR-FRET immunoassay); type: cell-based, human; conditions: PGD2 5 μM, BW245C 10 μM, up to 60 minutes
Method: cAMP levels were quantified using a time-resolved fluorescence resonance energy transfer (TR-FRET) immunoassay from Perkin Elmer (Waltham, Mass.) according to the manufacturer's protocol. Briefly, orbital fibroblasts were detached with a non-enzymatic cell dissociation solution (Versene, Invitrogen) and re-suspended in Stimulation Buffer (pH 7.4; 1×HBSS buffer containing 5 mmol/L HEPES buffer and 0.01%-0.1% BSA) containing 0.5 mM IBMX and labeled with the Alexa Fluor® 647-labeled anti-cAMP antibody. Finally, the cells were incubated with drugs at the indicated times. Following addition of the detection buffer, the amount of cAMP signal was measured.

[7] = tested on: human orbital fibroblasts; assay: qRT-PCR of HAS mRNA after TGF-β1 with or without Pio or Rosi; type: cell-based; conditions: 10 μM, 6 hours
From the text: RNA was isolated from orbital fibroblast strains using the RNeasy Mini kit according to the manufacturer's protocol (Qiagen, Valencia, Calif.) and reverse transcripted to cDNA using iScript cDNA synthesis kit (Bio-Rad, Hercules, Calif.). Primers for human HAS1, 2, 3 and 7S as well as qRT-PCR method to detect relative abundance of mRNA are identified supra. Primers for human PPARγ1 (NM138711) and PPARγ 2 (NM015869) mRNA were 5′-AAAGAAGCCGA-CACTAAACC-3′ (SEQ ID NO:3) (sense), 5′-CTTCCATTACGG-AGAGATCC-3′ (SEQ ID NO:4) (antisense) and, 5′-GCGATTC-CTTCACTGATAC-3′ (SEQ ID NO:5) (sense), 5′-CTTCCATT-ACGGAGAGATCC-3′ (SEQ ID NO:6) (antisense), respectively.

HMC-1 cells = assay: Measurement of PGD2 produced by mast cells (PGD2-MOX EIA); type: cell-based, human; conditions: 10 μM A23187, 30 minutes, compared to untreated
Method: HMC-1 cells (1×10^6/well) were seeded into 6-well plates and cultured in IMDM medium with 5% FBS in the absence or presence of HQL-79 (H-PGDS inhibitor, 100 μM) at 37° C. for 60 minutes. The cells were then washed and resuspended in RPMI 1640 medium with 0.5% FBS. After 2 hours incubation, the cells were stimulated with 10 μM calcium ionophore A23187 for 30 minutes. The culture media were collected and PGD2 in the supernatants was quantified by PGD2-MOX EIA kits (Cayman Chemical).

SMILES: O=C(O)CCn1c2c(c3ccccc31)C[C@H](NS(=O)(=O)c1ccc(F)cc1)CC2 [Ramatroban]
basal HA levels [1]: neither MK-0524 (MK) nor Ramatroban (RAM) influenced basal HA levels | PGD2- and PGJ2-induced HA production ([1]; 18 hours): unable to prevent the induction of HA by PGD2 or PGJ2

SMILES: CCCCC/C=C/C=C1/C(=O)C=C[C@@H]1C/C=C\CCCC(=O)O [15d-PGJ2, 15-deoxy-Δ12,14-Prostaglandin J2]
TGF-β induced HAS2 mRNA expression ([2]; 2 ng/ml TGF-β1): inhibited TGF-β induced HAS2 mRNA expression | TGF-β induced HAST mRNA expression ([2]; 2 ng/ml TGF-β1): enhanced TGF-β induced HAST mRNA expression | TGF-β induced HA secretion ([2]; 2 ng/ml TGF-β1, 24 hours): inhibited

SMILES: O=C(Nc1ccccc1)c1cc([N+](=O)[O-])ccc1Cl [GW9662]
PPARγ ligand-driven adipogenesis [3]: completely inhibited | effect of GW9662 on inhibition of TGF-β1 induced HA synthesis by Pio or Rosi ([4]; 1 μM GW9662 pretreatment 1 hour, 10 μM Pio or Rosi, 24 hours): did not significantly reduce the ability of either Pio or Rosi to inhibit TGF-β1 induced HA synthesis

SMILES: CCCCCC(=O)CCC1C(=O)CC(O)C1C/C=C\CCCC(=O)O (stereo not drawn) [DK-PGD2, 13,14-dihydro-15-keto-PGD2]
HA levels after selective DP agonist [1]: did not significantly increase HA levels

SMILES: CCCCC[C@H](O)/C=C/[C@H]1C(=O)C=C[C@@H]1C/C=C\CCCC(=O)O [PGJ2]
concentration yielding the largest induction of HA ([1]; 18 hours, strains OF1 and OF2): 2 µM | HA synthesis (HA ELISA) ([1]; increasing concentrations, 18 hours, strains OF1 and OF2): significantly increased HA synthesis by both fibroblast strains in a dose-dependant manner | adipogenesis in human orbital fibroblasts [3]: induce adipogenesis

SMILES: CS(=O)(=O)c1cc(F)cc2c3c(n(Cc4ccc(Cl)cc4)c12)[C@@H](CC(=O)O)CC3 [MK-0524]
basal HA levels [1]: neither MK-0524 (MK) nor Ramatroban (RAM) influenced basal HA levels | PGD2- and PGJ2-induced HA production ([1]; 18 hours): completely blocked the ability of both PGD2 and PGJ2 to induce HA production

cell number after treatment [4]: No significant changes in cell number
SMILES: CN(CCOc1ccc(CC2SC(=O)NC2=O)cc1)c1ccccn1 (stereo not drawn) [Rosi, rosiglitazone]
cell viability (XTT) [5]: no significant difference in cell viability among treatment conditions

SMILES: O=C(O)CCCCCCC1C(=O)NC(=O)N1CCC(O)C1CCCCC1 (stereo not drawn) [BW245C]
HA levels after selective DP agonist [1]: dose-dependently increased HA levels | HAS3 mRNA increase ([6]; 6 hours): 4.8±0.06 | HAS1 mRNA fold increase ([6]; two hours, compared to vehicle): 329±128 fold | HAS2 mRNA fold increase ([6]; two hours, compared to vehicle): 17±0.14 fold | intracellular cAMP production (orbital fibroblasts): significantly increased intracellular cAMP production within 15 to 30 minutes

cell number after treatment [4]: No significant changes in cell number
SMILES: CCc1ccc(CCOc2ccc(CC3SC(=O)NC3=O)cc2)nc1 (stereo not drawn) [Pio, pioglitazone]
inhibition at 10 µM ([4]; read-out: inhibition of TGF-β1 mediated pericellular accumulation of HA): 40 ± 2.2% | inhibition at 10 µM ([4]; read-out: inhibition of TGF-β1 mediated secretion of HA): 52 ± 2.2% | inhibition of TGF-β1 mediated HAS1 mRNA induction [7]: about 50% | inhibition of TGF-β1 mediated HAS2 mRNA induction [7]: about 50% | cell viability (XTT) [5]: no significant difference in cell viability among treatment conditions

SMILES: CNc1ccc2oc(C[C@H]3O[C@@]4(CC[C@H]3C)O[C@H]([C@H](C)C(=O)c3ccc[nH]3)[C@H](C)C[C@H]4C)nc2c1C(=O)O [A23187]
PGD2 production on activation (HMC-1 cells): significantly increased PGD2 production
